# Like-named read-outs stand apart in the source and are kept apart here.
# How the values were obtained:
# [1] = Tissue concentrations of Formula I and its metabolites in Göttingen pigs after a single oral or intravenous dose (LC-MS/MS); format: in vivo; conditions: for concentration at 2 h / concentration at 3 h / concentration at 12 h: both sexes, Göttingen, pig (minipig)
# Protocol: Tissue samples were collected at 3, 12, and 24 hours post-dose (hpd) for the oral dose and 2 and 12 hpd for the intravenous dose, snap-frozen in liquid nitrogen, and stored at −60 to −90° C. until shipment on dry ice for analysis by LC-MS/MS.
# Animals were weighed the day prior to dosing to determine the dosing volume.
# The compound of Formula I was dissolved in a PEG 400/DI water (60%/40% v/v) vehicle for oral dosing. For IV dosing the compound of Formula I was dissolved in a PEG 400/Cremophor RH 40/Saline (40%/10%/50% v/v) vehicle and passed through a sterile filter. […] Animals were euthanized by euthanasia solution administration under sedation, if necessary (e.g., acepromazine and or/Telazol®), followed by a Testing Facility SOP approved method to ensure death (e.g., exsanguination). Tissues were collected from two animals per sex per timepoint. Tissue samples, including the brain, heart, kidney, liver, lung, spleen, pancreas, bone marrow, duodenum, jejunum, and colon, were collected in duplicate (approximately 50±20 mg each) and placed into two separate reinforced homogenization tubes per organ (one tissue sample per tube). The exact weight (in milligrams) of each sample was recorded. Tissues samples were flash frozen in liquid nitrogen and stored at −60 to −90° C. until shipment on dry ice for analysis by LC-MS/MS.
# Mobile phase A consisted of 50 mM ammonium bicarbonate buffer in HPLC grade water pH 9.8 and mobile phase B consisted of pure acetonitrile. […] Mass spectrometry analysis was performed on a QTrap 7500 Mass Spectrometer (Sciex, Framingham, MA, USA) using negative mode electrospray ionization (ESI) in multiple reaction monitoring (MRM) mode. Data analysis was performed using SCIEX OS Software (Sciex, Framingham, MA, USA).
# Tissue samples were collected at 3, 12, and 24 hours post-dose for the oral dose and 2 and 12 hour post-dose for the intravenous dose.
# [2] = Stability in minipig plasma; format: in vitro ADME
# [3] = brain, single intravenous bolus of Formula I 25 mg/kg, 2 hpd
# [4] = brain, single intravenous bolus of Formula I 25 mg/kg, 12 hpd
# [5] = brain, single oral dose of Formula I 125 mg/kg, 3 hpd
# [6] = brain, single oral dose of Formula I 125 mg/kg, 12 hpd
# [7] = brain, single oral dose of Formula I 125 mg/kg, 24 hpd
# [8] = heart, single intravenous bolus of Formula I 25 mg/kg, 2 hpd
# [9] = heart, single intravenous bolus of Formula I 25 mg/kg, 12 hpd
# [10] = heart, single oral dose of Formula I 125 mg/kg, 12 hpd
# [11] = heart, single oral dose of Formula I 125 mg/kg, 24 hpd
# [12] = kidney, single intravenous bolus of Formula I 25 mg/kg, 12 hpd
# [13] = kidney, single oral dose of Formula I 125 mg/kg, 3 hpd
# [14] = kidney, single oral dose of Formula I 125 mg/kg, 12 hpd
# [15] = kidney, single oral dose of Formula I 125 mg/kg, 24 hpd
# [16] = liver, single intravenous bolus of Formula I 25 mg/kg, 2 hpd
# [17] = liver, single intravenous bolus of Formula I 25 mg/kg, 12 hpd
# [18] = liver, single oral dose of Formula I 125 mg/kg, 3 hpd
# [19] = liver, single oral dose of Formula I 125 mg/kg, 12 hpd
# [20] = liver, single oral dose of Formula I 125 mg/kg, 24 hpd
# [21] = lung, single intravenous bolus of Formula I 25 mg/kg, 12 hpd
# [22] = lung, single oral dose of Formula I 125 mg/kg, 12 hpd
# [23] = lung, single oral dose of Formula I 125 mg/kg, 24 hpd
# [24] = spleen, single intravenous bolus of Formula I 25 mg/kg, 12 hpd
# [25] = spleen, single oral dose of Formula I 125 mg/kg, 12 hpd
# [26] = spleen, single oral dose of Formula I 125 mg/kg, 24 hpd
structure (smiles),measurement,setting,value
CC(C)OC(=O)[C@H](C)N[P@](=O)(OC[C@H]1O[C@@H](n2ccc(=O)[nH]c2=S)C(C)(O)C1O)Oc1ccccc1 (stereo partly drawn) [Formula I],Quantity detectable in organs,"[1]; all organs, 2-3 hours after IV or PO dosing",~0.1 µM
same,concentration at 2 h,"[1]; in vivo, 25 mg/kg, kidney, single intravenous bolus of Formula I 25 mg/kg, 2 hpd, read-out: Tissue concentration, kidney",85 ± 93.1 ng/g
same,concentration at 2 h,"[1]; in vivo, 25 mg/kg, liver, single intravenous bolus of Formula I 25 mg/kg, 2 hpd, read-out: Tissue concentration, liver",7.03 ± 8.24 ng/g
same,concentration at 2 h,"[1]; in vivo, 25 mg/kg, lung, single intravenous bolus of Formula I 25 mg/kg, 2 hpd, read-out: Tissue concentration, lung",51.8 ± 29.1 ng/g
same,concentration at 2 h,"[1]; in vivo, 25 mg/kg, spleen, single intravenous bolus of Formula I 25 mg/kg, 2 hpd, read-out: Tissue concentration, spleen",63.9 ± 29.8 ng/g
same,concentration at 3 h,"[1]; in vivo, 125 mg/kg, brain, single oral dose of Formula I 125 mg/kg, 3 hpd, read-out: Tissue concentration, brain",31.5 ± 63 ng/g
same,concentration at 3 h,"[1]; in vivo, 125 mg/kg, heart, single oral dose of Formula I 125 mg/kg, 3 hpd, read-out: Tissue concentration, heart",117 ± 105 ng/g
same,concentration at 3 h,"[1]; in vivo, 125 mg/kg, liver, single oral dose of Formula I 125 mg/kg, 3 hpd, read-out: Tissue concentration in Göttingen pig liver (Table 7)",496 ± 663 nM
same,concentration at 3 h,"[1]; in vivo, 125 mg/kg, liver, single oral dose of Formula I 125 mg/kg, 3 hpd, read-out: Tissue concentration, liver",270 ± 361 ng/g
same,concentration at 3 h,"[1]; in vivo, 125 mg/kg, lung, single oral dose of Formula I 125 mg/kg, 3 hpd, read-out: Tissue concentration, lung",38.6 ± 46.5 ng/g
same,concentration at 3 h,"[1]; in vivo, 125 mg/kg, spleen, single oral dose of Formula I 125 mg/kg, 3 hpd, read-out: Tissue concentration, spleen",88.4 ± 60.3 ng/g
same,"Tissue concentration, brain",[1]; [3],BQL
same,"Tissue concentration, brain",[1]; [4],BQL
same,"Tissue concentration, brain",[1]; [5],31.5 ± 63.0 ng/g
same,"Tissue concentration, brain",[1]; [6],BQL
same,"Tissue concentration, brain",[1]; [7],BQL
same,"Tissue concentration, heart",[1]; [8],112 ± 69.0 ng/g
same,"Tissue concentration, heart",[1]; [9],2.95 ± 5.90 ng/g
same,"Tissue concentration, heart",[1]; [10],BQL
same,"Tissue concentration, heart",[1]; [11],BQL
same,"Tissue concentration, kidney",[1]; [12],BQL
same,"Tissue concentration, kidney",[1]; [13],BQL
same,"Tissue concentration, kidney",[1]; [14],BQL
same,"Tissue concentration, kidney",[1]; [15],BQL
same,"Tissue concentration, liver",[1]; [16],7.03 ± 8.24 ng/g
same,"Tissue concentration, liver",[1]; [17],BQL
same,"Tissue concentration, liver",[1]; [18],270 ± 361 ng/g
same,Tissue concentration in Göttingen pig liver (Table 7),[1]; [19],BQL
same,"Tissue concentration, liver",[1]; [19],BQL
same,Tissue concentration in Göttingen pig liver (Table 7),[1]; [20],BQL
same,"Tissue concentration, liver",[1]; [20],BQL
same,"Tissue concentration, lung",[1]; [21],BQL
same,"Tissue concentration, lung",[1]; [22],BQL
same,"Tissue concentration, lung",[1]; [23],BQL
same,"Tissue concentration, spleen",[1]; [24],BQL
same,"Tissue concentration, spleen",[1]; [25],BQL
same,"Tissue concentration, spleen",[1]; [26],BQL
same,Stability in minipig plasma,[2],good stability
CC1(O)[C@@H](O)[C@@H](COP(=O)(O)OP(=O)(O)OP(=O)(O)O)O[C@H]1n1ccc(=O)[nH]c1=S (stereo partly drawn) [Formula V],concentration at 12 h,"[1]; 125 mg/kg, liver, 12 hpd after oral dosing with Formula I, assumed tissue density of 1 g/mL, read-out: Concentration present in the liver",~1000 nM
same,concentration at 12 h,"[1]; lung, 25 mg/kg, lungs, 12 hrs post-dose after IV dosing with Formula I, read-out: Concentration maintained in lungs",~1000 nM
same,concentration at 2 h,"[1]; kidney, single intravenous bolus of Formula I 25 mg/kg, 2 hpd, read-out: Tissue concentration, kidney",4410 ± 2040 ng/g
same,concentration at 3 h,"[1]; kidney, single oral dose of Formula I 125 mg/kg, 3 hpd, read-out: Tissue concentration, kidney",613 ± 280 ng/g
same,concentration at 2 h,"[1]; liver, single intravenous bolus of Formula I 25 mg/kg, 2 hpd, read-out: Tissue concentration, liver",2610 ± 892 ng/g
same,concentration at 12 h,"[1]; liver, single intravenous bolus of Formula I 25 mg/kg, 12 hpd, read-out: Tissue concentration, liver",62.8 ± 126 ng/g
same,concentration at 3 h,"[1]; liver, single oral dose of Formula I 125 mg/kg, 3 hpd, read-out: Tissue concentration in Göttingen pig liver (Table 7)",12900 ± 12300 nM
same,concentration at 3 h,"[1]; liver, single oral dose of Formula I 125 mg/kg, 3 hpd, read-out: Tissue concentration, liver",6670 ± 6310 ng/g
same,concentration at 12 h,"[1]; liver, single oral dose of Formula I 125 mg/kg, 12 hpd, read-out: Tissue concentration in Göttingen pig liver (Table 7)",880 ± 1050 nM
same,concentration at 12 h,"[1]; liver, single oral dose of Formula I 125 mg/kg, 12 hpd, read-out: Tissue concentration, liver",452 ± 541 ng/g
same,concentration at 2 h,"[1]; lung, single intravenous bolus of Formula I 25 mg/kg, 2 hpd, read-out: Tissue concentration, lung",3620 ± 2770 ng/g
same,concentration at 12 h,"[1]; lung, single intravenous bolus of Formula I 25 mg/kg, 12 hpd, read-out: Tissue concentration, lung",455 ± 263 ng/g
same,concentration at 3 h,"[1]; lung, single oral dose of Formula I 125 mg/kg, 3 hpd, read-out: Tissue concentration, lung",170 ± 29.5 ng/g
same,concentration at 2 h,"[1]; spleen, single intravenous bolus of Formula I 25 mg/kg, 2 hpd, read-out: Tissue concentration, spleen",318 ± 181 ng/g
same,concentration at 12 h,"[1]; spleen, single intravenous bolus of Formula I 25 mg/kg, 12 hpd, read-out: Tissue concentration, spleen",47.5 ± 95 ng/g
same,"Tissue concentration, brain",[1]; [3],BQL
same,"Tissue concentration, brain",[1]; [4],BQL
same,"Tissue concentration, brain",[1]; [5],not detected and BQL
same,"Tissue concentration, brain",[1]; [6],BQL
same,"Tissue concentration, brain",[1]; [7],BQL
same,"Tissue concentration, heart",[1]; [8],405 ± 149 ng/g
same,"Tissue concentration, heart",[1]; [9],140 ± 32.0 ng/g
same,"Tissue concentration, heart","[1]; heart, single oral dose of Formula I 125 mg/kg, 3 hpd",64.3 ± 75.4 ng/g
same,"Tissue concentration, heart",[1]; [10],BQL
same,"Tissue concentration, heart",[1]; [11],BQL
same,"Tissue concentration, kidney","[1]; kidney, single intravenous bolus of Formula I 25 mg/kg, 2 hpd",4410 ± 2040 ng/g
same,"Tissue concentration, kidney",[1]; [12],not detectable and BQL
same,"Tissue concentration, kidney",[1]; [13],613 ± 280 ng/g
same,"Tissue concentration, kidney",[1]; [14],BQL
same,"Tissue concentration, kidney",[1]; [15],BQL
same,"Tissue concentration, liver",[1]; [16],2610 ± 892 ng/g
same,"Tissue concentration, liver",[1]; [17],62.8 ± 126 ng/g
same,"Tissue concentration, liver",[1]; [18],6670 ± 6310 ng/g
same,"Tissue concentration, liver",[1]; [19],452 ± 541 ng/g
same,Tissue concentration in Göttingen pig liver (Table 7),[1]; [20],BQL
same,"Tissue concentration, liver",[1]; [20],BQL
same,"Tissue concentration, lung","[1]; lung, single intravenous bolus of Formula I 25 mg/kg, 2 hpd",3620 ± 2770 ng/g
same,"Tissue concentration, lung",[1]; [21],455 ± 263 ng/g
same,"Tissue concentration, lung","[1]; lung, single oral dose of Formula I 125 mg/kg, 3 hpd",170 ± 29.5 ng/g
same,"Tissue concentration, lung",[1]; [22],BQL
same,"Tissue concentration, lung",[1]; [23],BQL
same,"Tissue concentration, spleen","[1]; spleen, single intravenous bolus of Formula I 25 mg/kg, 2 hpd",318 ± 181 ng/g
same,"Tissue concentration, spleen",[1]; [24],47.5 ± 95.0 ng/g
same,"Tissue concentration, spleen","[1]; spleen, single oral dose of Formula I 125 mg/kg, 3 hpd",not detected and BQL
same,"Tissue concentration, spleen",[1]; [25],BQL
same,"Tissue concentration, spleen",[1]; [26],BQL
